Patent EP2746402A1, “Method of prognosis of Alzheimers disease and substrates for use therein” (Academisch Medisch Centrum, priority 2013, dated 2014)
Positions of bridges follow the written chain, without caps; N, C: chain ends. Non-standard residues stand in square brackets, D forms with d. Residues, ends and D or L forms follow the SMILES beside them. *: point of attachment. Ileψ(thiazoline)Cys = CC[C@H](C)[C@H](N)C1=N[C@H](C(=O)*)CS1; Sta = CC(C)C[C@H](N)[C@@H](O)CC(=O)O; dOrn = NCCC[C@@H](N)C(=O)O; Isovaleryl = CC(C)CC(=O)*; Cbz = O=C(OCc1ccccc1)*; CH2Cl = ClC*

What was measured:
Format in all cases: biochemical
[1] = system: HEK293 cytosolic fractions; test: Quenched Aβ peptide (qAβ) degradation assay in HEK293 cytosolic fractions, with and without protease inhibitors; conditions: protease inhibitor added to HEK293 cytosolic fractions prior to qAβ, 30 minutes at 4 °C; inhibitor concentrations 20-200 µM; fluorescence at 37°C
Description: We developed a sensitive Aβ degradation assay by generating a quenched Aβ40 peptide containing a small fluorescein group and a quenching dabcyl group (Reits et al., 2004) flanking the KLVFF sequence present in the middle of the Aβ peptides that is a critical region for aggregation (Fig. 1A) (Tjernberg et al., 1996). A quenched Aβ42 peptide was difficult to synthesize as the peptide was too aggregation-prone during synthesis, preventing efficient labeling with the small fluorophore. […] The qAβ peptides were added to cytoplasmic fractions of mildly lysed HEK293 cells, thereby preventing contamination with extracellular membrane-bound or lysosomal proteases, resulting in an increase in fluorescent signal (Fig. 1B). To identify which proteases play a role in this Aβ clearance machinery, different protease inhibitors were added to the cytosolic fractions prior to adding the qAβ. […]
HEK cells were lysed in 25 µM digitonin (Sigma) in KMH buffer (110 mM KAc, 2 mM MgAc and 20 mM Hepes-KOH, pH 7.2). Human and mouse brain hippocampal tissue was lysed in ± 400 µl (adjusted to the amount of tissue) of homogenization buffer (50 mM Tris/HCl pH 7.5, 250 mM sucrose, 5 mM MgCl2 and freshly added 2 mM ATP, 1 mM DTT and 0.025 % digitonin (Sigma)). Tissue was homogenized on ice in homogenization buffer using a homogenizer. Cell lysates were incubated for 30 minutes on ice and centrifuged for 15 minutes at 14.000 rpm at 4 °C.
HFIP-treated aliquots of Aβ40 were resuspended in DMSO followed by sonication for 10 minutes, immediately before use. 75 ng (340 nM) of quenched Aβ40 was added to 5 µg protein from the cell lysates in KMH buffer (110 mM KAc, 2 mM MgAc and 20 mM Hepes-KOH, pH 7.2) to a total volume of 50 µl. Protease inhibitors (100 µM 1,10-phenanthroline, 200 µM bacitracin, 100 µM E64, 20 µM MG-132, 100 µM puromycin, 100 µM PMSF, 200 µM pepstatin A (all Sigma), 100 µM AAF-CMK, 100 µM amastatin or 50 µM bestatin (Enzo lifesciences AG), 50 µM PAQ-22 (Wako Chemicals), 100 µM Cpp-AAF-pNa (InstruChem), 50 µM PAQ-22 (SopaChem) and 100 µM butabindide (Tocris Bioscience)) were added to the cell lysates and incubated for 30 minutes at 4 °C. Degradation of the peptide was analyzed at 37°C using the FLUOstar OPTIMA (BMG Labtec.).

SH-SY5Y cell lysates = test: Degradation of the quenched 12-mer peptide in SH-SY5Y cell lysates
Description: To proof that shorter variants of the substrates of the invention may also be used as a suitable substrate to measure IDE activity, we analyzed the degradation of a substrate having the amino acid sequence HQKLVFFACDBC, which contains the KLVFF region flanked by a quenched and fluorophore. In addition, we examined the effect of bacitracine, the inhibitor for IDE, on the degradation of this 12-mer peptide (see Figure 5), as well as its ability to aggregate and form oligomers.
The 12-mer substrate having the amino acid sequence HQKLVFFACDCB (SEQ ID NO:10) containing a fluorophore and quencher was synthesized as described before (Reits et al., 2004), introducing a fluorescein at the cysteine (position 11) and a quenching dabcyl group at the lysine (position 3). The substrate was sonificated immediately before use and added to 5 µg cell lysate. KMH buffer (110 mM KAc, 2 mM MgAc and 20 mM Hepes-KOH, pH 7.2) was added to a total volume of 50 µl. Degradation of the substrate was analyzed at 37°C using the FLUOstar OPTIMA (BMG Labtec.).

[2] = system: human hippocampal lysates; test: Quenched Aβ peptide (qAβ) degradation assay in human hippocampal lysates at different Braak stages; conditions: bacitracin added to hippocampal lysates prior to qAβ; all Braak stages
Procedure: Since the hippocampus is highly susceptible to Aβ accumulation, we examined whether the ability to degrade Aβ is affected in sporadic (sAD) using human hippocampal tissue of post-mortem brains with varying Braak stages. Included were Braak 0 (control, no AD) and Braak I-VI. When the ability to degrade qAβ was determined for each Braak stage (Fig. 2A, solid bars), a strong decrease in qAβ degradation rate was already observed in Braak stage I (t-test, two-tailed, p=0.03), which further decreased during the progression to Braak stage II (t-test, two-tailed, p=0.01). […] Also oligomerized Aβ was less well degraded with increasing Braak stage (Fig. 2B). AD progression can also be classified by plaque distribution in well defined brain areas giving a particular amyloid score, ranging from O (no plaques) to C. Similar to increasing Braak stages, the rate of qAβ degradation decreased with increasing amyloid score, being significant for hippocampal fractions of brains classified with amyloid score C (t-test, two-tailed, p=0.017) (Fig. 2C). […]
HFIP-treated aliquots of Aβ40 were resuspended in DMSO followed by sonication for 10 minutes, immediately before use. […] Degradation of the peptide was analyzed at 37°C using the FLUOstar OPTIMA (BMG Labtec.).

Compound | effect on qAβ degradation [1] | further results
C[C@H](N)C(=O)N[C@@H](C)C(=O)N[C@@H](Cc1ccccc1)C(=O)CCl [AAF-CMK] (H-Ala-Ala-Phe-CH2Cl) | did not show any effect | 
CC(C)C[C@H](NC(=O)[C@H]1O[C@@H]1C(=O)O)C(=O)NCCCCN=C(N)N [E64] | did not show any effect | 
CC(C)C[C@@H](C=O)NC(=O)[C@H](CC(C)C)NC(=O)[C@H](CC(C)C)NC(=O)OCc1ccccc1 [MG132] (Cbz-Leu-Leu-Leu-aldehyde) | did not show any effect | 
O=S(=O)(F)Cc1ccccc1 [PMSF] | did not show any effect | 
CC(C)C[C@@H](N)[C@H](O)C(=O)N[C@H](C(=O)N[C@H](C(=O)N[C@@H](CC(=O)O)C(=O)O)C(C)C)C(C)C [amasatin] | did not show any effect | 
CC[C@H](C)[C@H](N)C1=N[C@H](C(=O)N[C@@H](CC(C)C)C(=O)N[C@H](CCC(=O)O)C(=O)N[C@H](C(=O)N[C@H]2CCCCNC(=O)[C@H](CC(N)=O)NC(=O)[C@@H](CC(=O)O)NC(=O)[C@H](Cc3cnc[nH]3)NC(=O)[C@@H](Cc3ccccc3)NC(=O)[C@H]([C@@H](C)CC)NC(=O)[C@@H](CCCN)NC2=O)[C@@H](C)CC)CS1 [bacitracin] ({Ileψ(thiazoline)Cys}-L[dE]IK[dOrn]I[dF]H[dD]N; lactam 4-C) | reduced | effect on degradation of the 12-mer peptide (SH-SY5Y cell lysates; bacitracine added to SH-SY5Y cell lysates, monomeric 12-mer): inhibited; ability to degrade qAβ [2]: strongly reduced
CC(C)C[C@H](NC(=O)[C@@H](O)[C@H](N)Cc1ccccc1)C(=O)O [bestatin] | did not show any effect | 
CCCCNC(=O)[C@@H]1Cc2ccccc2N1C(=O)[C@@H](N)CC [butabindide] | did not show any effect | 
CC(C)CC(=O)N[C@H](C(=O)N[C@H](C(=O)N[C@@H](CC(C)C)[C@@H](O)CC(=O)N[C@@H](C)C(=O)N[C@@H](CC(C)C)[C@@H](O)CC(=O)O)C(C)C)C(C)C [pepstatin] (Isovaleryl-VV[Sta]A[Sta]-OH) | did not show any effect | 
c1cnc2c(c1)ccc1cccnc12 [phenantroline, 1,10-phenanthroline] | significantly decreased | 
HQKLVFFACDCB [12-mer peptide] |  | plateau level of fluorescence after aggregation (SH-SY5Y cell lysates; 12-mer peptide incubated at 37°C (3 HR in PBS) before addition to SH-SY5Y cell lysates): lower plateau level; degradation of the 12-mer peptide (SH-SY5Y cell lysates; monomeric form added to SH-SY5Y cell lysates): degradation could be observed
